Activity calls are given as the source filed them. The rule behind the calls is not given here.
Legend:
Drosophila melanogaster [1] = assay: Anti-alzheimer activity in ey-GAL4 driven UAS-amyloid beta (1 to 42) induced Drosophila melanogaster Oregon R-positive assessed as mild eye phenotype at 10 uM by Stereo zoom microscopic imaging analysis relative to control; type: functional
[2] = Toxicity in Drosophila melanogaster Oregon R-positive assessed as reduction in eclosed flies at 20 uM measured for 15 days relative to control; parameters: scale not given: the % may be the effect or the level left; settings: 360 h, time 15 day
Mus musculus [3] = assay: Neuroprotective activity against scopolamine-induced Swiss albino mouse model assessed as increase in NR4A2 mRNA level at 0.3 to 0.5 mg/kg, po measured after 6 days by RT-PCR analysis; type: functional, organism-based; settings: dose 0.3-0.5 mg/kg, time 6.0 day
Drosophila melanogaster [4] = assay: Anti-alzheimer activity in ey-GAL4 driven UAS-amyloid beta (1 to 42) induced Drosophila melanogaster Oregon R-positive assessed as rescued eye phenotype at 10 uM by Stereo zoom microscopic imaging analysis relative to control; type: functional
Mus musculus [5] = assay: Antialzheimer activity in scopolamine-induced Swiss albino mouse model assessed as decrease in escape latency at 0.3 to 0.5 mg/kg, po preincubated with compound for 30 mins followed by scopolamine induction and measured after 5 days by Morris water maze test; type: functional, organism-based; settings: dose 0.3-0.5 mg/kg, time 7230.0 min
Acetylcholinesterase [6] = target: T1, Acetylcholinesterase (Homo sapiens, UniProt P22303); assay: Displacement of propidium iodide from human AChE PAS assessed as reduction in fluorescence intensity at 1 uM incubated for 6 hrs by fluorescence based analysis relative to control; parameters: scale not given: the % may be the effect or the level left
[7] = target: Cholinesterase (Equus caballus) (UniProt P81908); assay: Reversible binding affinity to equine serum BChE using acetylthiocholine iodide as substrate assessed as equilibrium binding constant preincubated for 40 mins by DTNB reagent based Ellman's method
Acetylcholinesterase [8] = target: T1, Acetylcholinesterase; assay: Inhibition of human recombinant AChE expressed in HEK293 cells using acetylthiocholine iodide as substrate preincubated with compound for 30 mins followed by substrate addition and measured after 30 mins by DTNB reagent based Ellman's method
Acetylcholinesterase [9] = target: T1, Acetylcholinesterase; assay: Displacement of propidium iodide from human AChE PAS assessed as reduction in fluorescence intensity at 5 uM incubated for 6 hrs by fluorescence based analysis relative to control; parameters: scale not given: the % may be the effect or the level left
PC-12 [10] = assay: Induction of apoptosis in rat PC-12 cells assessed as viable cells at 2.5 uM incubated for 24 hrs by Annexin V/PI staining based flow cytometry analysis (reference value: 82.8%); type: functional; settings: read-out: Activity
[11] = Permeability of the compound across blood brain barrier; type: ADME; settings: read-out: BBB
PC-12 [12] = assay: Induction of apoptosis in rat PC-12 cells assessed as viable cells at 20 uM incubated for 24 hrs by Annexin V/PI staining based flow cytometry analysis (reference value: 82.8%); type: functional; settings: read-out: Activity
[13] = target: Cholinesterase (Equus caballus) (UniProt P81908); assay: Reversible binding affinity to equine serum BChE using acetylthiocholine iodide as substrate assessed as binding constant preincubated for 40 mins by DTNB reagent based Ellman's method
Drosophila melanogaster [14] = assay: Anti-alzheimer activity in ey-GAL4 driven UAS-amyloid beta (1 to 42) induced Drosophila melanogaster Oregon R-positive assessed as rescued eye phenotype at 50 uM by Stereo zoom microscopic imaging analysis relative to control; type: functional
Acetylcholinesterase [15] = target: T1, Acetylcholinesterase; assay: Displacement of propidium iodide from human AChE PAS assessed as reduction in fluorescence intensity at 0.01 uM incubated for 6 hrs by fluorescence based analysis relative to control; parameters: scale not given: the % may be the effect or the level left
Acetylcholinesterase [16] = target: T1, Acetylcholinesterase; assay: Displacement of propidium iodide from human AChE PAS assessed as reduction in fluorescence intensity at 0.1 uM incubated for 6 hrs by fluorescence based analysis relative to control; parameters: scale not given: the % may be the effect or the level left
Mus musculus [17] = assay: Neuroprotective activity against scopolamine-induced Swiss albino mouse model assessed as upregulation of PKA mRNA level at 0.3 to 0.5 mg/kg, po measured after 6 days by RT-PCR analysis; type: functional, organism-based; settings: dose 0.3-0.5 mg/kg, time 6.0 day
[18] = Toxicity in Drosophila melanogaster Oregon R-positive assessed as reduction in eclosed flies at 40 uM measured for 15 days relative to control; parameters: scale not given: the % may be the effect or the level left; settings: 360 h, time 15 day
Mus musculus [19] = assay: Antialzheimer activity in scopolamine-induced Swiss albino mouse model assessed as reduction in BChE level at 0.3 to 0.5 mg/kg, po preincubated with compound for 30 mins followed by scopolamine induction and measured after 30 mins; type: functional, organism-based; settings: dose 0.3-0.5 mg/kg, time 1.0 hrs
Mus musculus [20] = assay: Antioxidant activity against scopolamine-induced Swiss albino mouse model assessed as increase in MDA level at 0.3 to 0.5 mg/kg, po by absorbance based analysis; type: functional, organism-based; settings: dose 0.3-0.5 mg/kg
[21] = Metal chelating activity assessed as compound-Cu2+ complex formation by measuring increase in absorption intensity at 300 uM in presence of by UV-vis spectrometry
Mus musculus [22] = assay: Antioxidant activity against scopolamine-induced Swiss albino mouse model assessed as increase in SOD level at 0.3 to 0.5 mg/kg, po by absorbance based analysis; type: functional, organism-based; settings: dose 0.3-0.5 mg/kg
Drosophila melanogaster [23] = assay: Anti-alzheimer activity in ey-GAL4 driven UAS-amyloid beta (1 to 42) induced Drosophila melanogaster Oregon R-positive assessed as severe eye phenotype at 100 uM by Stereo zoom microscopic imaging analysis relative to control; type: functional
Mus musculus [24] = assay: Antioxidant activity against scopolamine-induced Swiss albino mouse model assessed as increase in catalase level in brain at 0.3 to 0.5 mg/kg, po by absorbance based analysis; type: functional, organism-based; settings: dose 0.3-0.5 mg/kg

T1 sequence (P22303 whole entry): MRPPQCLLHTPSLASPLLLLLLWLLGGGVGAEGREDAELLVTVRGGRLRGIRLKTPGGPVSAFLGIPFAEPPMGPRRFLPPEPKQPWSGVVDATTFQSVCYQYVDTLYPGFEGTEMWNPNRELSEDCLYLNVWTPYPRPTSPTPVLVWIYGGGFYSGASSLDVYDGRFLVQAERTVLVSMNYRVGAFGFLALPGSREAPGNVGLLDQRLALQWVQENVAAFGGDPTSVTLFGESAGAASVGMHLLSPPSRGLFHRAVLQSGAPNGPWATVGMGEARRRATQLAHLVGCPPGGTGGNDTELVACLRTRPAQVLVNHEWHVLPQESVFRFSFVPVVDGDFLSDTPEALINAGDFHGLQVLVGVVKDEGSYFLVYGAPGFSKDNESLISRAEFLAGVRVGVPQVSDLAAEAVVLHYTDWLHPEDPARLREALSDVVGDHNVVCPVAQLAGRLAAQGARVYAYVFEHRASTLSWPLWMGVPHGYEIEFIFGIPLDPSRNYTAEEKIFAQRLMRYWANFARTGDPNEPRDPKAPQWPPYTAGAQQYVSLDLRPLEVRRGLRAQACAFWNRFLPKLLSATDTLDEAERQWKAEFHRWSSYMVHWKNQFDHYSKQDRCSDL
Sequence of Cholinesterase (Equus caballus) (P81908 whole entry, the tested form may be a part): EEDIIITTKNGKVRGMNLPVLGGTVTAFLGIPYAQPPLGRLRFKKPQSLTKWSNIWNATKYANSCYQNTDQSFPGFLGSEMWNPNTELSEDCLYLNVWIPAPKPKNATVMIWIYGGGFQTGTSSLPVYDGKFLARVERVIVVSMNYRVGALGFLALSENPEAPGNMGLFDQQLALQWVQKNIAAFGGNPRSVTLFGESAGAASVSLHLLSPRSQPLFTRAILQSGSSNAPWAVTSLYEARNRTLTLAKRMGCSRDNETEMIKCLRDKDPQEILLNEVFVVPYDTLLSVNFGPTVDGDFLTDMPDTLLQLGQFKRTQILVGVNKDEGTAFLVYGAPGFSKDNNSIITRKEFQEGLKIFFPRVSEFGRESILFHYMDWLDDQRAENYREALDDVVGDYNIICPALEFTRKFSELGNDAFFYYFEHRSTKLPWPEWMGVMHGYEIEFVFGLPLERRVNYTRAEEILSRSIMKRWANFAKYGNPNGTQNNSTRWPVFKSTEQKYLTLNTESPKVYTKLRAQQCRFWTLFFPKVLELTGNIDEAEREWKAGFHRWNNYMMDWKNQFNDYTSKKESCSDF

What does the source list for C[C@@H](c1cccc(OC(=O)NCCc2c[nH]c3ccc(Cl)cc23)c1)N(C)C?
Activity (Drosophila melanogaster [1]): 36%; Activity [2]: 103%; Activity (Mus musculus [3]): Active; Activity (Drosophila melanogaster [4]): 43%; Activity (Mus musculus [5]): Active; Activity (Acetylcholinesterase [6]): 20.4%; Kb [7]: 0.13 nM; IC50 (Acetylcholinesterase [8]): 7.97 nM; Activity (Acetylcholinesterase [9]): 21.9%; viability at 2.5 µM (PC-12 [10]): 72.2%; Papp [11]: 13 ×10⁻⁶ cm/s; viability at 20 µM (PC-12 [12]): 81.5%; K [13]: 0.035 min⁻¹; Activity (Drosophila melanogaster [14]): 23%; Activity (Acetylcholinesterase [15]): 1.37%; Activity (Acetylcholinesterase [16]): 3.56%; Activity (Mus musculus [17]): Active; Activity [18]: 20%; Activity (Mus musculus [19]): Active; Activity (Mus musculus [20]): Active; Activity [21]: inactive; Activity (Mus musculus [22]): Active; Activity (Drosophila melanogaster [23]): 26%; Activity (Mus musculus [24]): Active

— ChEMBL document CHEMBL6074689 (Eur J Med Chem, 2025)
